Data taken from US12016852B2, “Pyrrolidine glycosidase inhibitors” (Asceneuron SA, priority 2018, dated 2024).

Target: T1, Human O-GlcNAcase (His-Tagged hOGA) (Homo sapiens, UniProt O60502)
T1 sequence (O60502 1-916): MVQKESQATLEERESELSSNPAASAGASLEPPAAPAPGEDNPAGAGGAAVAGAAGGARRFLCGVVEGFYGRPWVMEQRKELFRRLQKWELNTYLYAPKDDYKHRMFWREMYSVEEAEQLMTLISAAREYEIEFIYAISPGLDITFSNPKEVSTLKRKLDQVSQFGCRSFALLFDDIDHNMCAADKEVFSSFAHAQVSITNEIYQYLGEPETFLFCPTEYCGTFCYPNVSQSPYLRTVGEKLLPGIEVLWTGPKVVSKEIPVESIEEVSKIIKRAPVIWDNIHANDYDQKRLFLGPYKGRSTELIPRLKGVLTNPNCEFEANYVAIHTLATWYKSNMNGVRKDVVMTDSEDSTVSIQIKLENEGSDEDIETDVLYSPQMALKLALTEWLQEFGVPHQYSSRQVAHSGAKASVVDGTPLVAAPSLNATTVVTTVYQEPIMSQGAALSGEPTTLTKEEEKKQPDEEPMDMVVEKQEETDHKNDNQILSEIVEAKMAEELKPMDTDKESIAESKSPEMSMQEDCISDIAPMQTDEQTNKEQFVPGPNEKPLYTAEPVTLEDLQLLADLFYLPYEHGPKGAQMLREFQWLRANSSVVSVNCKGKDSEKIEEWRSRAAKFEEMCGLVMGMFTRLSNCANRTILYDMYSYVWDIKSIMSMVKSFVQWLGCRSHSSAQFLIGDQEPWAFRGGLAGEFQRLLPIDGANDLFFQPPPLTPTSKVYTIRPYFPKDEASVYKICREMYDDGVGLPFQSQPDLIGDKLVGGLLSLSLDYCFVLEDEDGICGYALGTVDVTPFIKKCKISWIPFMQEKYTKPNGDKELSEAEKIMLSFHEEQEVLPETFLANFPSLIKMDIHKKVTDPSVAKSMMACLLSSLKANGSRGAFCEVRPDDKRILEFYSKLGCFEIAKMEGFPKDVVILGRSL
Test: Human O-GlcNAcase enzyme inhibition assay
Assay type: biochemical
Conditions: 20 nM His-Tagged hOGA, 10 μM FL-GlcNAc, McIlvaine's Buffer pH 6.5, 60 min at room temperature, fluorescence; read-out: OGA IC50
Protocol: Example B01: Human O-GlcNAcase Enzyme Inhibition Assay
5 μl of the appropriate concentration of a solution of inhibitor in Mcllvaine's Buffer (pH 6.5) in 2% DMSO (for a dose response curve calculation) is added into each well of a 384-well plate (Greiner, 781900). Then, 20 nM of His-Tagged hOGA and 10 μM of FL-GlcNAc (Fluorescein mono-beta-D-(2-deoxy-2-N-acetyl) glucopyranoside; Marker Gene Technologies Inc, M1485) were added to the 384-well plate for a final volume of 20 μl. After incubation for 60 min at room temperature, the reaction was terminated by the addition of 10 μL of stop buffer (200 mM glycine, pH 10.75). The level of fluorescence (λexc 485 nm; (λemm 520 nm) was read on a PHERAstar machine. The amount of fluorescence measured was plotted against the concentration of inhibitor to produce a sigmoidal dose response curve to calculate an IC50. All individual data was corrected by subtraction of the background (Thiamet 3 uM=100% inhibition) whilst 0.5% DMSO was considered as the control value (no inhibition).

SMILES	IC50 [nM]
Cc1cc(-c2cccnc2C)ccc1CN1CCCC1c1ccc2c(c1)OCCO2 (racemic) [Example 56, 3-(4-((2-(2,3-dihydrobenzo[b] [1,4]dioxin-6-yl)pyrrolidin-1-yl)methyl)-3-methylphenyl)-2-methylpyridine]	200 to 1000
c1cnc(N2CCC(CN3CCCC3c3ccc4c(c3)OCCO4)CC2)nc1 (racemic) [Example 35, 2-(4-((2-(2,3-dihydrobenzo[b] [1,4]dioxin-6-yl)pyrrolidin-1-yl)methyl)piperidin-1-yl)pyrimidine]	200 to 1000
c1cnc(-c2ccc(CN3CCCC3c3ccc4c(c3)OCCO4)cc2)cn1 (racemic) [Example 64, 2-(4-((2-(2,3-dihydrobenzo[b] [1,4]dioxin-6-yl)pyrrolidin-1-yl)methyl)phenyl)pyrazine]	50 to 200
CC(=O)N1CCN(c2ccc(CN3CCCC3c3ccc4c(c3)OCCO4)cc2)CC1 (racemic) [Example 37, 1-(4-(4-((2-(2,3-dihydrobenzo[b] [1,4]dioxin-6-yl)pyrrolidin-1-yl)methyl)phenyl)piperazin-1-yl)ethan-1-one]	200 to 1000
Cn1ccc(-c2ccc(CN3CCCC3c3ccc4c(c3)OCCO4)cc2)n1 (racemic) [Example 152]	200 to 1000
c1cnc(-c2ccc(CN3CCCC3c3ccc4c(c3)OCCO4)cc2)nc1 (racemic) [Example 69, 2-(4-((2-(2,3-dihydrobenzo[b] [1,4]dioxin-6-yl)pyrrolidin-1-yl)methyl)phenyl) pyrimidine]	50 to 200
N#Cc1ccc(Oc2ccc(CN3CCCC3c3ccc4c(c3)OCCO4)cc2)cc1 (racemic) [Example 154]	200 to 1000
c1cnc2ccc(CN3CCCC3c3ccc4c(c3)OCCO4)cc2c1 (single isomer, unassigned) [Example 25, (S)-6-((2-(2,3-dihydrobenzo[b] [1,4]dioxin-6-yl)pyrrolidin-1-yl)methyl)quinolone or (R)-6-((2-(2,3-dihydrobenzo[b] [1,4]dioxin-6-yl)pyrrolidin-1-yl)methyl)quinolone]	50 to 200
Cc1ccc(-c2nc(CN3CCCC3c3ccc4c(c3)OCO4)co2)cc1 (single isomer, unassigned) [Example 2, (S)-4-((2-(benzo[d] [1,3]dioxol-5-yl)pyrrolidin-1-yl)methyl)-2-(D-tolyl)oxazole or (R)-4-((2-(benzo[d] [1,3]dioxol-5-yl)pyrrolidin-1-yl)methyl)-2-(D-tolyl)oxazole]	1000 to 10000
Cc1cc(-c2ccc(CN3CCCC3c3ccc4c(c3)OCCO4)cn2)ccn1 (racemic) [Example 155]	200 to 1000
COc1ncc(-c2ccc(CN3CCCC3c3ccc4c(c3)OCCO4)cc2)cn1 (racemic) [Example 159]	< 50
Cc1cnc(-c2ccc(CN3CCCC3c3ccc4c(c3)OCCO4)cc2)s1 (racemic) [Example 59, 2-(4-((2-(2,3-dihydrobenzo[b] [1,4]dioxin-6-yl)pyrrolidin-1-yl)methyl)phenyl)-5-methylthiazole]	200 to 1000
N#Cc1cnn(-c2ccc(CN3CCCC3c3ccc4c(c3)OCCO4)cc2)c1 (racemic) [Example 52, 1-(4-((2-(2,3-dihydrobenzo[b] [1,4]dioxin-6-yl)pyrrolidin-1-yl)methyl)phenyl)-1H-pyrazole-4-carbonitrile]	50 to 200
c1ccc(-c2ccc(CN3CCCC3c3ccc4c(c3)OCCO4)cc2)cc1 (racemic) [Example 9, 1-([1,1′-biphenyl]-4-ylmethyl)-2-(2,3-dihydrobenzo[b] [1,4]dioxin-6-yl)pyrrolidine]	200 to 1000
Fc1ccc(-c2ccc(CN3CCCC3c3ccc4c(c3)OCCO4)cc2)nc1 (racemic) [Example 160]	50 to 200
Cn1cc(-c2ccc(CN3CCCC3c3ccc4c(c3)OCC4)cc2)cn1 (racemic) [Example 11, 4-(4-((2-(2,3-dihydrobenzofuran-6-yl)pyrrolidin-1-yl)methyl)phenyl)-1-methyl-1H-pyrazole]	< 50
Cc1cc(-c2ccncc2)ccc1CN1CCCC1c1ccc2c(c1)OCCO2 (racemic) [Example 49, 4-(4-((2-(2,3-dihydrobenzo[b] [1,4]dioxin-6-yl)pyrrolidin-1-yl)methyl)-3-methylphenyl)pyridine]	200 to 1000
O=c1[nH]nc(-c2ccc(CN3CCCC3c3ccc4c(c3)OCCO4)cc2)o1 (racemic) [Example 76, 5-(4-((2-(2,3-dihydrobenzo[b] [1,4]dioxin-6-yl)pyrrolidin-1-yl)methyl)phenyl)-1,3,4-oxadiazol-2(3H)-one]	200 to 1000
c1cc(-c2ccc(CN3CCCC3c3ccc4c(c3)OCCO4)cc2)ccn1 (racemic) [Example 46, 4-(4-((2-(2,3-dihydrobenzo[b] [1,4]dioxin-6-yl)pyrrolidin-1-yl)methyl)phenyl)pyridine]	200 to 1000
c1ncn(-c2ccc(CN3CCCC3c3ccc4c(c3)OCCO4)cc2)n1 (racemic) [Example 34, 1-(4-((2-(2,3-dihydrobenzo[b] [1,4]dioxin-6-yl)pyrrolidin-1-yl)methyl)phenyl)-1H-1,2,4-triazole]	50 to 200
CS(=O)(=O)N1CCN(c2ccc(CN3CCCC3c3ccc4c(c3)OCCO4)cc2)CC1 (single isomer, unassigned) [Example 148]	1000 to 10000
c1cncc(-c2ccc(CN3CCCC3c3ccc4c(c3)OCCO4)cc2)c1 (racemic) [Example 30, 3-(4-((2-(2,3-dihydrobenzo[b] [1,4]dioxin-6-yl)pyrrolidin-1-yl)methyl)phenyl) pyridine]	50 to 200
CS(=O)(=O)c1ccc(CN2CCCC2c2ccc3c(c2)OCCO3)cc1 (single isomer, unassigned) [Example 13, (S)-2-(2,3-dihydrobenzo[b] [1,4]dioxin-6-yl)-1-(4-(methylsulfonyl)benzyl) pyrrolidine or (R)-2-(2,3-dihydrobenzo[b] [1,4]dioxin-6-yl)-1-(4-(methylsulfonyl)benzyl) pyrrolidine]	200 to 1000
Cc1cc(-c2ccncc2C)ccc1CN1CCCC1c1ccc2c(c1)OCCO2 (racemic) [Example 57, 4-(4-((2-(2,3-dihydrobenzo[b] [1,4]dioxin-6-yl)pyrrolidin-1-yl)methyl)-3-methylphenyl)-3-methylpyridine]	200 to 1000
Clc1cc(-c2ccccn2)ccc1CN1CCCC1c1ccc2c(c1)OCCO2 (racemic) [Example 43, (3-chloro-4-((2-(2,3-dihydrobenzo[b] [1,4]dioxin-6-yl)pyrrolidin-1-yl)methyl)phenyl) pyridine]	1000 to 10000
c1ccc2ncc(CN3CCCC3c3ccc4c(c3)OCCO4)cc2c1 (racemic) [Example 26, 3-((2-(2,3-dihydrobenzo[b] [1,4]dioxin-6-yl)pyrrolidin-1-yl)methyl)quinoline]	200 to 1000
O=S1(=O)CCN(c2ccc(CN3CCCC3c3ccc4c(c3)OCCO4)cc2)CC1 (racemic) [Example 66, 4-(4-((2-(2,3-dihydrobenzo[b] [1,4]dioxin-6-yl)pyrrolidin-1-yl)methyl)phenyl)thiomorpholine 1,1-dioxide]	200 to 1000
c1ncn(-c2ccc(CN3CCCC3c3ccc4c(c3)OCCO4)cc2)n1 (single isomer, unassigned) [Example 48, (S)-1-(4-((2-(2,3-dihydrobenzo[b] [1,4]dioxin-6-yl)pyrrolidin-1-yl)methyl) Phenyl)-1H-1,2,4-triazole or (R)-1-(4-((2-(2,3-dihydrobenzo[b] [1,4]dioxin-6-yl)pyrrolidin-1-yl)methyl)phenyl)-1 H-1,2,4-triazole]	50 to 200
CS(=O)(=O)c1cccc(-c2ccc(CN3CCCC3c3ccc4c(c3)OCCO4)cc2)c1 (racemic) [Example 44, 2-(2,3-dihydrobenzo[b] [1,4]dioxin-6-yl)-1-((3′-(methylsulfonyl)-[1,1′-biphenyl]-4-yl)methyl)pyrrolidine]	200 to 1000
Cc1cc(C(=O)Nc2ccc(CN3CCCC3c3ccc4c(c3)OCCO4)cc2)ccn1 (racemic) [Example 158]	200 to 1000
